US5668165A, “Small molecule inhibition of RNA/ligand binding” (Scriptgen Pharmaceuticals, Inc., priority 1995, dated 1997)
Where two headings read alike, the source gives them in different places.

Legend:
[1] = system: binding of Rev to the RRE (67-nt RNA probe containing a high affinity Rev-binding site); set-up: species or system HIV; settings: for ability to inhibit Rev binding (inhibitory at any concentration tested): 67-nt 32P-labeled RNA probe, gel mobility shift
Experimental: To test whether antibiotics can block binding of Rev to the RRE, a 67-nt ^32 P-labeled RNA probe containing a high affinity Rev-binding site was incubated with purified E. coli derived Rev protein in the presence of various antibiotics. Binding of Rev to the RNA probe was quanitified by an RNA gel mobility shift assay.

[2] = target: T1, binding of Oct-1 to the HSV ICPO octamer binding site (Homo sapiens, UniProt P14859); experiment: Oct-1 DNA binding, gel mobility shift assay; settings: 100 μM
T1 sequence (P14859 1-743): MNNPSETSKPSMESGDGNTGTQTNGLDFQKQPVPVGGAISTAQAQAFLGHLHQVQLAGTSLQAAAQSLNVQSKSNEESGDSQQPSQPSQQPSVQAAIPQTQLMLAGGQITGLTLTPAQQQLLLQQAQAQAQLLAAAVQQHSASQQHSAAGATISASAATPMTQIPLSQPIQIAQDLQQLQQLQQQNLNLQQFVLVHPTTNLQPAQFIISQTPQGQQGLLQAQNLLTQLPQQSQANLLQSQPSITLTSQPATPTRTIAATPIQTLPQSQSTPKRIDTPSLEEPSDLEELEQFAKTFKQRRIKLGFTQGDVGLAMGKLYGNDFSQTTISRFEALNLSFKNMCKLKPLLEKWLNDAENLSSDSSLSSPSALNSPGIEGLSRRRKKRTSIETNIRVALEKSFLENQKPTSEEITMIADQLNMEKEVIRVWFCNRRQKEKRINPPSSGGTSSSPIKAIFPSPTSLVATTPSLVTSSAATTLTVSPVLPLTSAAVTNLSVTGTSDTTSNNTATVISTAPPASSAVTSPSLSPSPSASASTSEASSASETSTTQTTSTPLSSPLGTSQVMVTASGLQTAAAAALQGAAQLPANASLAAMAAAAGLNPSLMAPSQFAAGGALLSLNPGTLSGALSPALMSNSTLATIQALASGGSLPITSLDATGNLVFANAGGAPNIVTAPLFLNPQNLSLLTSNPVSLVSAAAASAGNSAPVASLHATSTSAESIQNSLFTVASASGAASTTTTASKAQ
Experimental: In these studies, the DNA binding activities of two eukaryotic transcription factors, Oct-1 and ATF-2, were analyzed using a gel mobility shift assay. Purified Oct-1 was inculcated in the absence or presence of 100 μM neomycin B with a ^32 P-labelled 70-nt DNA probe containing an HSV ICPO octamer binding site (Stern and Her, Genes and Development, 5:2555-2566 (1991)). Additionally, the effect of 100 μM neomycin B on the binding of ATF-2 to a 35-nt DNA probe homologous to nucleotides -251 to -232 of the HTLV-1 LTR was analyzed.

[3] = system: Rev-RRE interaction (splicing of RRE-containing pre-mRNA); experiment: Rev function in vitro: Rev-mediated repression of splicing; type: biochemical, HIV; settings: RRE-containing pre-mRNA, Rev derivative
Experimental: The experiments described above measured the ability of 2-DOS antibiotics to interfere with binding of purified Rev to RNA. […] This hypothesis was tested by analyzing Rev function in vitro. In this assay, inhibition of splicing requires both a Rev derivative that can bind RNA, as well as a pre-mRNA containing the RRE. Thus, splicing repression is dependent upon the Rev-RRE interaction. Because neomycin B inhibited Rev binding, it was believed that the drug would reverse splicing repression.

Rev function = Rev function in vivo: cotransfection assay with CAT reporter plasmid pCM128; type: cell-based, HIV; settings: cotransfection of pCM128 with a Rev expression plasmid
Experimental: The experiments described below were performed to determine whether or not the inhibitory 2-DOS antibiotics antagonize Rev function in vivo. Rev function was measured in a cotransfection assay using the chloramphenicol acetytransferase (CAT) reporter plasmid pCM128, which has a single intron containing both the RRE and the bacterial CAT coding sequence (Hope et al., Proc. Natl. Acad. Sci. USA, 87:7787-7791 (1990)). Normally, the intron is efficiently excised by splicing; therefore, cells transfected with pCM128 express only trace amounts of CAT enzyme activity. Cotransfection with a Rev expression plasmid permits unspliced transcripts to enter the cytoplasm, and thus CAT expression is increased.

Group I introns = settings: von Ahsen et al. 1992; cited from earlier work

Compound: NC[C@@H]1O[C@H](O[C@H]2[C@@H](O)[C@H](O[C@@H]3[C@@H](O)[C@H](N)C[C@H](N)[C@H]3O[C@H]3O[C@H](CN)[C@@H](O)[C@H](O)[C@H]3N)O[C@@H]2CO)[C@H](N)[C@@H](O)[C@@H]1O [neomycin B]
- ability to inhibit Rev binding (inhibitory at any concentration tested) [1]: significant inhibitory ability
- ability to inhibit Rev binding (inhibitory at any concentration tested) ([1]; listed as Neomycin B): the most potent inhibitor
- concentration that achieves inhibition of Rev binding ([1]; 67-nt RNA probe, neomycin B: complete inhibition): 1 µM
- inhibiting the binding of Rev to the RRE ([1]; Rev/RRE binding inhibition assay, summary of thirteen 2-DOS aminoglycosides): exceptional inhibitory potential
- binding of Oct-1 to the HSV ICPO octamer binding site [2]: unaffected
- concentration that counteracted the Rev-mediated repression of splicing [3]: 1.0 to 2.5 µM
- Rev function (CAT expression) (Rev function): dose-dependent inhibition
- self-splicing of Group I introns in vitro (Group I introns): effectively inhibit
